From PubChem BioAssay (NCI)
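A five-concentration, 48-hour dose response in 96-well plates underlies each endpoint, interpolated linearly between surrounding concentrations. At the TGI there is no net growth.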

Assays:
Assay in all cases: growth of human tumour cells (NCI), 48 h
786-0 renal = tested on: 786-0 renal
A498 renal = tested on: A498 renal
ACHN renal = tested on: ACHN renal
CAKI-1 renal = tested on: CAKI-1 renal
CCRF-CEM leukemia = tested on: CCRF-CEM leukemia
COLO 205 colon = tested on: COLO 205 colon
DLD-1 colon = tested on: DLD-1 colon
DMS 114 small cell lung = tested on: DMS 114 small cell lung
DMS 273 small cell lung = tested on: DMS 273 small cell lung
HCC-2998 colon = tested on: HCC-2998 colon
HCT-116 colon = tested on: HCT-116 colon
HL-60(TB) leukemia = tested on: HL-60(TB) leukemia
HOP-62 NSCLC = tested on: HOP-62 NSCLC
HOP-92 NSCLC = tested on: HOP-92 NSCLC
IGROV1 ovarian = tested on: IGROV1 ovarian
K-562 leukemia = tested on: K-562 leukemia
LXFL 529 NSCLC = tested on: LXFL 529 NSCLC
M14 melanoma = tested on: M14 melanoma
M19-MEL melanoma = tested on: M19-MEL melanoma
MALME-3M melanoma = tested on: MALME-3M melanoma
MOLT-4 leukemia = tested on: MOLT-4 leukemia
NCI-H226 lung = tested on: NCI-H226 lung
NCI-H23 lung = tested on: NCI-H23 lung
NCI-H460 lung = tested on: NCI-H460 lung
NCI-H522 lung = tested on: NCI-H522 lung
OVCAR-4 ovarian = tested on: OVCAR-4 ovarian
RPMI-8226 leukemia = tested on: RPMI-8226 leukemia
RXF-631 renal = tested on: RXF-631 renal
SF-268 CNS = tested on: SF-268 CNS
SK-MEL-2 melanoma = tested on: SK-MEL-2 melanoma
SK-MEL-28 melanoma = tested on: SK-MEL-28 melanoma
SK-OV-3 ovarian = tested on: SK-OV-3 ovarian
SNB-75 CNS = tested on: SNB-75 CNS
SNB-78 CNS = tested on: SNB-78 CNS
SR leukemia = tested on: SR leukemia
UACC-62 melanoma = tested on: UACC-62 melanoma
UO-31 renal = tested on: UO-31 renal
A549 NSCLC = tested on: A549 NSCLC
EKVX NSCLC = tested on: EKVX NSCLC
HCT-15 colon = tested on: HCT-15 colon
HOP-18 NSCLC = tested on: HOP-18 NSCLC
HT29 colon = tested on: HT29 colon
KM12 colon = tested on: KM12 colon
KM20L2 colon = tested on: KM20L2 colon
LOX IMVI melanoma = tested on: LOX IMVI melanoma
OVCAR-3 ovarian = tested on: OVCAR-3 ovarian
OVCAR-5 ovarian = tested on: OVCAR-5 ovarian
OVCAR-8 ovarian = tested on: OVCAR-8 ovarian
RXF 393 renal = tested on: RXF 393 renal
SF-295 CNS = tested on: SF-295 CNS
SF-539 CNS = tested on: SF-539 CNS
SN12C renal = tested on: SN12C renal
SNB-19 CNS = tested on: SNB-19 CNS
SW-620 colon = tested on: SW-620 colon
TK-10 renal = tested on: TK-10 renal
U251 CNS = tested on: U251 CNS
UACC-257 melanoma = tested on: UACC-257 melanoma
XF 498 CNS = tested on: XF 498 CNS

## COc1cc([C@H]2Oc3cc(O)c4c(=O)cc(-c5ccc(O)cc5)oc4c3O[C@@H]2CO)ccc1O
786-0 renal
  TGI: 29.3 µM
A498 renal
  TGI: 35.2 µM
ACHN renal
  TGI: 63.4 µM
CAKI-1 renal
  TGI: 44.9 µM
CCRF-CEM leukemia
  TGI: 44.3 µM
COLO 205 colon
  TGI: 31.7 µM
DLD-1 colon
  TGI: 32.3 µM
DMS 114 small cell lung
  TGI: 40 µM
DMS 273 small cell lung
  TGI: 31.8 µM
HCC-2998 colon
  TGI: 28.5 µM
HCT-116 colon
  TGI: 26.4 µM
HL-60(TB) leukemia
  TGI: 53 µM
HOP-62 NSCLC
  TGI: 33.5 µM
HOP-92 NSCLC
  TGI: 60.7 µM
IGROV1 ovarian
  TGI: 59.3 µM
K-562 leukemia
  TGI: 83.5 µM
LXFL 529 NSCLC
  TGI: 29.2 µM
M14 melanoma
  TGI: 34 µM
M19-MEL melanoma
  TGI: 36.8 µM
MALME-3M melanoma
  TGI: 33.3 µM
MOLT-4 leukemia
  TGI: 53.9 µM
NCI-H226 lung
  TGI: 39 µM
NCI-H23 lung
  TGI: 31.1 µM
NCI-H460 lung
  TGI: 17.8 µM
NCI-H522 lung
  TGI: 18.6 µM
OVCAR-4 ovarian
  TGI: 63.2 µM
RPMI-8226 leukemia
  TGI: 46 µM
RXF-631 renal
  TGI: 24.1 µM
SF-268 CNS
  TGI: 5.79 µM
SK-MEL-2 melanoma
  TGI: 30.7 µM
SK-MEL-28 melanoma
  TGI: 28 µM
SK-OV-3 ovarian
  TGI: 36.6 µM
SNB-75 CNS
  TGI: 18.5 µM
SNB-78 CNS
  TGI: 98.1 µM
SR leukemia
  TGI: 47.8 µM
UACC-62 melanoma
  TGI: 34.2 µM
UO-31 renal
  TGI: 54.2 µM

## CSC(=N)N1N=C2c3ccccc3CC[C@@H]2[C@@H]1c1ccccc1
786-0 renal
  TGI: 25.6 µM
A498 renal
  TGI: 35.2 µM
A549 NSCLC
  TGI: 34.2 µM
ACHN renal
  TGI: 50.2 µM
CCRF-CEM leukemia
  TGI: 65 µM
COLO 205 colon
  TGI: 26.6 µM
DLD-1 colon
  TGI: 31.7 µM
DMS 114 small cell lung
  TGI: 28.7 µM
DMS 273 small cell lung
  TGI: 28.5 µM
EKVX NSCLC
  TGI: 44.4 µM
HCC-2998 colon
  TGI: 29.4 µM
HCT-116 colon
  TGI: 17.7 µM
HCT-15 colon
  TGI: 31 µM
HL-60(TB) leukemia
  TGI: 34.6 µM
HOP-18 NSCLC
  TGI: 47.8 µM
HOP-62 NSCLC
  TGI: 32.8 µM
HOP-92 NSCLC
  TGI: 20.4 µM
HT29 colon
  TGI: 23.6 µM
IGROV1 ovarian
  TGI: 34.8 µM
K-562 leukemia
  TGI: 39.7 µM
KM12 colon
  TGI: 27.9 µM
KM20L2 colon
  TGI: 25.6 µM
LOX IMVI melanoma
  TGI: 28.5 µM
LXFL 529 NSCLC
  TGI: 24.2 µM
M14 melanoma
  TGI: 27.4 µM
M19-MEL melanoma
  TGI: 29.4 µM
MALME-3M melanoma
  TGI: 25.9 µM
MOLT-4 leukemia
  TGI: 35.8 µM
NCI-H226 lung
  TGI: 22.6 µM
NCI-H23 lung
  TGI: 35.3 µM
NCI-H460 lung
  TGI: 27.2 µM
NCI-H522 lung
  TGI: 27.8 µM
OVCAR-3 ovarian
  TGI: 36 µM
OVCAR-4 ovarian
  TGI: 49.3 µM
OVCAR-5 ovarian
  TGI: 34.7 µM
OVCAR-8 ovarian
  TGI: 29.1 µM
RPMI-8226 leukemia
  TGI: 35.5 µM
RXF 393 renal
  TGI: 27.7 µM
SF-268 CNS
  TGI: 49.6 µM
SF-295 CNS
  TGI: 27.9 µM
SF-539 CNS
  TGI: 27.2 µM
SK-MEL-2 melanoma
  TGI: 29.2 µM
SK-MEL-28 melanoma
  TGI: 29.8 µM
SK-OV-3 ovarian
  TGI: 41.6 µM
SN12C renal
  TGI: 31.2 µM
SNB-19 CNS
  TGI: 34 µM
SR leukemia
  TGI: 30.9 µM
SW-620 colon
  TGI: 29.9 µM
TK-10 renal
  TGI: 33.5 µM
U251 CNS
  TGI: 31 µM
UACC-257 melanoma
  TGI: 35.3 µM
UACC-62 melanoma
  TGI: 41.7 µM
UO-31 renal
  TGI: 22.4 µM
XF 498 CNS
  TGI: 30.6 µM
